Reference: patent US20050054027A1 (priority 2003, published 2005)
Where a name gives a salt, the structure may show the parent alone.

Test system: TMPRSS6
Assay: Inhibition of TMPRSS6 protease activity (cleavage of fluorogenic substrate Ac-RKFK-acc)
Type: biochemical, human
Conditions: 2 nM enzyme, 15 min preincubation at room temperature, inhibition constant only in FIG. 4
Description: The putative catalytic domain of TMPRSS6 minus the pro region was cloned into pFastBac1 (Invitrogen) from a human cDNA library. […] The vector also contains a C-terminal 6His tag to facilitate purification and an N-terminal honeybee melittin secretion signal. Recombinant bacmid was produced using Bac-to-Bac transposition technology (Invitrogen). Sf9 cells (Invitrogen) were then transfected with recombinant bacmid to produce rAcNPV.
Protease activity of the purified TMPRSS6 was assessed by monitoring the accumulation of the fluorophore 7-amino-4-carbamoylmethylcoumarin (acc) produced by the cleavage of the tetrapeptide substrate Ac-RKFK-acc in assay buffer (50 mM Tris-Cl pH 7.4, 200 mM NaCl, 2 mM CaCl2, 0.01% Tween 20) at 37 C. Data was collected with a Gemini EM plate reader (Molecular Devices) at λex=380 nm and λem=450 nm.
A 1 mM DMSO solution of camostat mesylate was diluted serially 1:3 in DMSO to a final concentration of 5.6 nM. The TMPRSS6 enzyme was diluted in assay buffer to 2 nM. 1 μl of each camostat dilution was added to 98 μl of the enzyme mixture in a 96 well assay plate (Dynex). The plate was incubated for 15 min at room temperature to allow equilibrium to take place between the enzyme and inhibitor. Afterward, 1 μl of a 1 mM solution of a substrate, Ac-RKFK-acc, was added to each well. […] The inhibition constant was calculated using Prism (GraphPad).

## CN(C)C(=O)COC(=O)Cc1ccc(OC(=O)c2ccc(NC(=N)N)cc2)cc1 [camostat mesylate]
  inhibition of TMPRSS6 protease activity: inhibited
